# Experimental data reported in US9115151B2, “Substituted 2,10-dihydro-9-oxa-1,2,4A-triazaphenanthren-3-ones and uses thereof” (AbbVie Inc., priority 2012, dated 2015).
# Structures can show the parent of a compound that is named as a salt.
# Columns and labels:
# [1] = tested on: CD3/CD28 induced IL-2 in human T-Blasts; experiment: T-Blasts CD3/CD28 induced IL-2 assay; format: cell-based; settings: read-out: CD3/CD28-stimulated IL2 in T-blasts EC50
# Experimental: T-Blasts CD3/CD28 Induced IL-2 Assay
# Human T-Blasts are generated using PHA following standard protocols. T-Blasts are freeze aliquoted and vials thawed as required. […] Seed 2×10^5/100 μL cell suspension per well in flat bottomed 96 well plate. Compound dilutions are prepared from 100% DMSO stocks. A total of 8 serial dilutions are made (1/3 in 100% DMSO). Compounds are diluted 1/50 in growth medium to prepare 4× stocks of each tested concentration. 50 μL from each 4× stock concentration is added to the 100 μL cell suspension and incubated for 30 minutes prior stimulus addition. A 4× stimulus stock is prepared using anti-CD3+anti-CD28 antibodies. Antibody mix is added to the cell/compounds suspension in 50 μL at 5 μg/mL final concentration. Compounds are tested in duplicates. Plates are transferred to 37° C./CO2 incubator for 24 hours. After incubation 130 μL of supernatant is collected for IL-2 determination while MTT toxicity analysis is performed on remaining cells/medium.
# PKCα = target: T1, PKCα (Homo sapiens, UniProt P17252); experiment: In vitro enzyme assay (time-resolved fluorescence kinase assay), PKCα, 100 μM ATP; format: biochemical; settings: 100 μM ATP; read-out: PKCα enzyme IC50
# T1 construct: His6; purchased Millipore; host or cells: baculovirus in Sf21 cells
# Experimental: (§1) PKC kinase activity was assayed by time-resolved fluorescence in vitro kinase assay. Unless otherwise indicated, all reagents used for enzyme assays were obtained from Sigma. Specifically, 5 μL N- or C-terminal His6-tagged, recombinant, human PKC, expressed by baculovirus in Sf21 cells (Millipore) was mixed with 5 μL inhibitor (various concentrations, 5% final DMSO), 5 μL Bio-cdc peptide (Biotin-Ahx-[…], 2 μM final concentration, New England Peptide) and 5 μL of ATP (100 μM or 1000 μM final concentration) in 1× reaction buffer, 20 μL final volume.
# (§2) Following a sixty minute incubation at room temperature, the reaction was quenched with 5 μL of 0.5 M EDTA pH 7.5.
# (§3) Background counts from a minus enzyme control is subtracted from all data. Data (after background correction) are converted to percent activity by dividing by the signal obtained from PKC without drug sample.
# PKCθ = target: T2, PKCθ (Homo sapiens, UniProt Q04759); experiment: In vitro enzyme assay (time-resolved fluorescence kinase assay), PKCθ, 100 μM ATP; format: biochemical
# T2 construct: His6; purchased Millipore; host or cells: baculovirus in Sf21 cells
# T2 sequence (Q04759 whole entry): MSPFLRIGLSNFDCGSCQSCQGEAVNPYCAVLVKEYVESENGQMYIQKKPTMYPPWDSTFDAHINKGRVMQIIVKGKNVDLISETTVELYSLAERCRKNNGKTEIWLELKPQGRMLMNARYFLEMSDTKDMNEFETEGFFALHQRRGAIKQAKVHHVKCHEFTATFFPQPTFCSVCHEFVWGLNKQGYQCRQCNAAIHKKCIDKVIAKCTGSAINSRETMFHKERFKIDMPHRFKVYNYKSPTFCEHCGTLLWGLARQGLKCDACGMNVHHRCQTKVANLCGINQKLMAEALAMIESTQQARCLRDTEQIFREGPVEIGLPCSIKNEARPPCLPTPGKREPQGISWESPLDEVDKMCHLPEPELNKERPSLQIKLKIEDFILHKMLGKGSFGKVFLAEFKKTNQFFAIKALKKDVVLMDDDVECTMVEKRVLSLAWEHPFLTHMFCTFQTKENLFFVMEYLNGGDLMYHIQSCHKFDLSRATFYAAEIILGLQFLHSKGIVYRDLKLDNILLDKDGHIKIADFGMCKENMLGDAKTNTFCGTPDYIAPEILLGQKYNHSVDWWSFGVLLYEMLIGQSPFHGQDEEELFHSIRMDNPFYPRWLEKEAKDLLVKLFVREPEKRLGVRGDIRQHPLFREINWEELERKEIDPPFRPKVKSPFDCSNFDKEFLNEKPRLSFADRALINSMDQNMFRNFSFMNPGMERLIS
# Experimental: as §1, §2, §3
SMILES,EC50 [1] [µM],IC50 (PKCα) [µM],IC50 (PKCθ) [µM]
CC1C(=O)NN=C2COc3cc(-c4cccc(C(F)(F)F)c4)c(NC4CNC4)cc3N21 (racemic) [Example 24],< 0.25,1 to 10,0.25 to 1
C[C@@H]1C(=O)NN=C2COc3cc(-c4ccccc4CO)c(N(C)C4(C)CN(CCO)C4)cc3N21 [Example 195],< 0.25,1 to 10,< 0.25
COc1cccc(-c2cc3c(cc2NC2CNC2)N2C(=NNC(=O)C2C)CO3)c1 (racemic) [Example 20],< 0.25,1 to 10,< 0.25
C[C@@H]1C(=O)NN=C2COc3cc(-c4ccccc4F)c(N(C)C4(C)CN(C(=O)C(F)(F)F)C4)cc3N21 [Example 186],0.25 to 1,1 to 10,0.25 to 1
C[C@@H]1C(=O)NN=C2COc3cc([C@H](C)C(F)(F)F)c(NC4CNC4)cc3N21 [Example 62],0.25 to 1,1 to 10,< 0.25
"C[C@@H]1C(=O)NN=C2COc3cc(F)c(NC4CNC4)cc3N21 (single isomer, unassigned) [Example 56-2, trifluoroacetic acid]",< 0.25,1 to 10,< 0.25
C[C@@H]1C(=O)NN=C2COc3cc(-c4ccccc4F)c(N(C)C4(C)CN(CC(C)(C)O)C4)cc3N21 [Example 190],< 0.25,0.25 to 1,< 0.25
C[C@@H]1CNCCN1c1cc2c(cc1-c1ccccc1F)OCC1=NNC(=O)[C@@H](C)N12 [Example 223],< 0.25,0.25 to 1,< 0.25
COc1ccccc1-c1cc2c(cc1NC1CNC1)N1C(=NNC(=O)C1C)CO2 (racemic) [Example 34],0.25 to 1,1 to 10,< 0.25
C[C@@H]1C(=O)NN=C2COc3cc(-c4ccccc4F)c(N4CCNC[C@@H]4C)cc3N21 [Example 224],< 0.25,0.25 to 1,< 0.25
C[C@@H]1C(=O)NN=C2COc3cc(-c4ccccc4F)c(N(C)C4(C)CN(C[C@@H](C)O)C4)cc3N21 [Example 189],< 0.25,0.25 to 1,< 0.25
"C[C@@H]1C(=O)NN=C2COc3cc(-c4ccccc4F)c(N(C)[C@@]4(C)CCN(C)C4)cc3N21 (single isomer, unassigned) [Example 198-3]",< 0.25,0.25 to 1,< 0.25
CC1C(=O)NN=C2COc3cc(-c4ccc(N(C)C)cc4)c(NC4CNC4)cc3N21 (racemic) [Example 19],< 0.25,1 to 10,0.25 to 1
"Cc1cc2c(cc1N(C)C1CNC1)N1C(=NNC(=O)C1C)CO2 (stereo not drawn) [Example 55, 6-(Azetidin-3-yl-methyl-amino)-4,7-dimethyl-2,10-dihydro-9-oxa-1,2,4a-triaza-phenanthren-3-one trifluoroacetic acid]",1 to 10,1 to 10,0.25 to 1
CC1CNCCC1c1ccc2c(c1)N1C(=NNC(=O)C1C)CO2 (stereo not drawn) [Example 73],1 to 10,1 to 10,0.25 to 1
"CC1C(=O)NN=C2COc3cc(C(C)C(F)(F)F)c(NC4CNC4)cc3N21 (stereo not drawn) [Example 112, 9-(Azetidin-3-ylamino)-1-methyl-8-(1,1,1-trifluoropropan-2-yl)-3,5-dihydrobenzo[5,6][1,4]oxazino[3,4-c][1,2,4]triazin-2(1H)-one trifluoroacetic acid salt]",1 to 10,1 to 10,1 to 10
C[C@@H]1C(=O)NN=C2COc3cc(-c4ccccc4F)c([C@@H]4CCCNCC4)cc3N21 [Example 218],0.25 to 1,1 to 10,< 0.25
CC1C(=O)NN=C2COc3cc(-c4ccc(F)cc4)c(NC4CNC4)cc3N21 (racemic) [Example 50],< 0.25,1 to 10,< 0.25
C[C@@H]1CNCC[C@@H]1c1cc2c(cc1-c1ccccc1CO)OCC1=NNC(=O)[C@@H](C)N12 [Example 204],0.25 to 1,1 to 10,< 0.25
